# Counter-ions that a name gives are not always drawn.
# Key:
# [1] = biological target: T1, Progesterone receptor of rabbit's uterus (Oryctolagus cuniculus, UniProt P06186); experiment: Relative bond affinity, progesterone receptor of rabbit's uterus (tritiated R 5020 displacement); assay type: binding; conditions: progesterone = 100
# T1 construct: The uteruses were removed, weighed and homogenised at 0° C; from tissue; host or cells: uterus cytosol (105,000 g supernatant) of estradiol-primed impuberal female rabbits
# T1 sequence (P06186 1-930): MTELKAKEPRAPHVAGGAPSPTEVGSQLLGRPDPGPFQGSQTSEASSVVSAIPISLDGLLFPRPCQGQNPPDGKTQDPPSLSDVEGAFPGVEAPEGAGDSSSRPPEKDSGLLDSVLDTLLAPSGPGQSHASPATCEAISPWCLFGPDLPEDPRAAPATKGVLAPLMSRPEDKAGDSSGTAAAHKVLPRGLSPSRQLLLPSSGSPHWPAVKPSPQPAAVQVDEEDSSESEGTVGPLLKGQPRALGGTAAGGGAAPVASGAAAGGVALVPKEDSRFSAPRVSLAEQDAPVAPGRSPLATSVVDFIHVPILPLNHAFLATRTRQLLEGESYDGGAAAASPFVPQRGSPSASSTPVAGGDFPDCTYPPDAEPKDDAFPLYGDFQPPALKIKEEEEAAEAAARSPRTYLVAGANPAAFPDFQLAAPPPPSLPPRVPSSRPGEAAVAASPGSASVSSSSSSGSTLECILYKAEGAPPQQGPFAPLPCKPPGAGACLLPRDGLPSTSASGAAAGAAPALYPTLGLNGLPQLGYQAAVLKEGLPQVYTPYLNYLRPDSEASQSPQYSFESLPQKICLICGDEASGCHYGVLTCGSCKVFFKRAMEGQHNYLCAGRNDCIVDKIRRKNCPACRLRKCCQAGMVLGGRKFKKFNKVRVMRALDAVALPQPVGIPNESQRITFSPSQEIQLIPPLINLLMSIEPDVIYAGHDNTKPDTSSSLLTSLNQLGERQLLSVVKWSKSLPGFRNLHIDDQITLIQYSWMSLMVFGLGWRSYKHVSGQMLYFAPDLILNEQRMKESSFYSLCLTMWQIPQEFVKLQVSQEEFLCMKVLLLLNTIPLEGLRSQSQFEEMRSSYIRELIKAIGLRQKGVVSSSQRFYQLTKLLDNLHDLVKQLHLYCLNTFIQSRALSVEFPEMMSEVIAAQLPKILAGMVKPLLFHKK
# Description: Impuberal female rabbits weighing about 1 kg received a cutaneous application of 25 μg of estradiol and five days after this treatment, the animals were killed. The uteruses were removed, weighed and homogenised at 0° C. using a Potter teflon-flask ina (TS) 10 mM Tris, 0.25M saccharose, HCl pH 7.4 buffer (1 g of tissue per 50 ml of TS). The homogenate was ultra-centrifuged at 105,000 g×90 mn at 0° C. and aliquots of the supernatant or "cytosol", were incubated at 0° C. for 2 hours and 24 hours with a constant concentration (T=5 nm) of tritiated R 5020 (17,21-dimethyl-19-nor-Δ^4,9 -pregnadien-3, 20-dione, strongly progrestomimetic mimetic having a great affinity for the progesterone receptor), in the presence of increasing concentrations (0-2500 nM) of cold progesterone, or of the product under test. The concentration of bonded tritiated R 5020 (B) was measured in each incubate by the technique of adsorption with carbon-dextran. […]
# (§1) The straight line of the equation: [formula] was determined. […]
# (§2) The intersections of the straight line I50 and the curves allow the evaluation of the concentrations of the cold reference hormone (CH) and of the cold product under test (CX) which inhibit by 50% the bonding of the tritiated hormone on the receptor. The relative bond affinity (RBA) of the product under test was determined by the equation RBA=100 (CH)/(CX)
# [2] = biological target: T2, Glucocorticoid receptor of rat's thymus (Rattus norvegicus, UniProt P06536); experiment: Relative bond affinity, glucocorticoid receptor of rat's thymus (tritiated dexamethasone displacement); assay type: binding; conditions: dexamethasone = 100
# T2 construct: The thymuses were removed and homogenized at 0° C; from tissue; host or cells: thymus cytosol (105,000 g supernatant) of adrenalectomized male rats
# T2 sequence (P06536 1-795): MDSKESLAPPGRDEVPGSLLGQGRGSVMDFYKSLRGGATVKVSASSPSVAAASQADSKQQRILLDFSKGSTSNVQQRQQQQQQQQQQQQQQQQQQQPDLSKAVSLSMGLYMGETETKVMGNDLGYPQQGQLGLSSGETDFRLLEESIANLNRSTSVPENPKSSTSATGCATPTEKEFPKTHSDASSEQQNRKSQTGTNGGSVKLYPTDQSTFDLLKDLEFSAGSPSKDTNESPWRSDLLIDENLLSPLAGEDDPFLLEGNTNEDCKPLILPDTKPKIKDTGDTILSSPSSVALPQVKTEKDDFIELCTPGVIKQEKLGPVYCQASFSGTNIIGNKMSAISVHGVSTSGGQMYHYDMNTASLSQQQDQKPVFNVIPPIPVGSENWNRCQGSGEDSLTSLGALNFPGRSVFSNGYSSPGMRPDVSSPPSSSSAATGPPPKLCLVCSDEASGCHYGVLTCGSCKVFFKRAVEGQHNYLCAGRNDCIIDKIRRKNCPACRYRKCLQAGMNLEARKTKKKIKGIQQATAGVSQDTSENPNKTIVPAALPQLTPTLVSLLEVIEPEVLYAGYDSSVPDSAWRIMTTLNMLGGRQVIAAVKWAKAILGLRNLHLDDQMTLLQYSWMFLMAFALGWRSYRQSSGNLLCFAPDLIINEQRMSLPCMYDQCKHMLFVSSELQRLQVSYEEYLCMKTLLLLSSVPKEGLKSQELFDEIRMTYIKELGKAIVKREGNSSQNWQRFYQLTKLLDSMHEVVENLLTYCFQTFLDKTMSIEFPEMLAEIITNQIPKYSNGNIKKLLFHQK
# Description: Male rats weighing 160 to 200 g were suprarenalectomized and 4 to 8 days after this removal, the animals were killed. The thymuses were removed and homogenized at 0° C. using a Potter teflon-flask in a (TSD) 10 mM Tris, 0.25M saccharose, 2mM dithiothreitol, HCl, pH 7.4 buffer (1 g of tissue per 10 ml of TSD). The homogenate was ultracentrifuged at 105,000 g×90 mn at 0° C. and aliquots of the supernatant or "cystosol" were incubated at 0° C. for 4 hours and 24 hours with constant concentration (T=2.5 nM) of tritiated dexamethasone in the presence of increasing concentrations (0-2,500 nM) of cold dexamethasone or of the cold product under test. The concentration of the bonded tritiated dexamethasone (B) was then measured in each incubate by the technique of adsorption with carbon-dextran.
# (§3) The calculation of the relative bond affinity (RBA) was identical for all receptors. […]
# as §1, §2
# [3] = biological target: T3, Androgen receptor of rat's prostate (Rattus norvegicus, UniProt P15207); experiment: Relative bond affinity, androgen receptor of rat's prostate (tritiated testosterone displacement); assay type: binding; conditions: testosterone = 100
# T3 construct: The prostates were removed, weighed and homogenized at 0° C; from tissue; host or cells: prostate cytosol (105,000 g supernatant) of castrated male rats
# T3 sequence (P15207 1-902): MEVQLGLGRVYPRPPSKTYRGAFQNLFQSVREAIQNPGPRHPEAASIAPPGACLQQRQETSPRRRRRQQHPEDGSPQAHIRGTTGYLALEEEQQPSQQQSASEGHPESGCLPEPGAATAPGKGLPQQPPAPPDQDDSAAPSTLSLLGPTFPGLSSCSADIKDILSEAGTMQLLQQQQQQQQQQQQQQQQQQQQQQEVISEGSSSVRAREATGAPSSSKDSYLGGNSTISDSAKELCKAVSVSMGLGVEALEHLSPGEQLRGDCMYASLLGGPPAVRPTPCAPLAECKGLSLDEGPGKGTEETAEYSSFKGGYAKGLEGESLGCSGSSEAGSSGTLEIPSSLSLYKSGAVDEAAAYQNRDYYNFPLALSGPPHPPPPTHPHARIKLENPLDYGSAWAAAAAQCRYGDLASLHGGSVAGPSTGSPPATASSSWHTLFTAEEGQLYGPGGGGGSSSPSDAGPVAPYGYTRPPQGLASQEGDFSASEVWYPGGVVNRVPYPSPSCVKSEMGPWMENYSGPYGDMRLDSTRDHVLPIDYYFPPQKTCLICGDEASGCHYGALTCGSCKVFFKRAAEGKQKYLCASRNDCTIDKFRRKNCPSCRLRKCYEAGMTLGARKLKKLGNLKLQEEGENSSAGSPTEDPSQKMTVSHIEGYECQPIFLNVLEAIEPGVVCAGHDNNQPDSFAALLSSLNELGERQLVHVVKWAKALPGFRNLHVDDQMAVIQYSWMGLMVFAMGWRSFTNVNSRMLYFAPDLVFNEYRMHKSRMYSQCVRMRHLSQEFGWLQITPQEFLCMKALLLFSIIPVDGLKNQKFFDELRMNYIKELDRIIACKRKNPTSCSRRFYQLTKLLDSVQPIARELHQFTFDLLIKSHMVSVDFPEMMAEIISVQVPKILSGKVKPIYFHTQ
# Description: Male rats weighing of 160 to 200 g were castrated and 24 hours after the castration, the animals were killed. The prostates were removed, weighed and homogenized at 0° C. using a Potter Teflon-flask in a (TSDPM) 10 mM Tris, 0.25 M saccharose, 0.1 mM phenyl methane sulfonyl fluoride, 20 mM molybdate, 2mM dithiothreitol, HCl pH 7.4 buffer (1 g of tissue per 5 ml of TSDPM). The homogenate was ultracentrifuged at 105,000 g×60 mn at 0° C. and aliquots of the supernatant or "cytosol" were incubated at 0° C. with a constant concentration of tritiated testosterone in the presence of increasing concentrations (0-1000 nM) of cold testosterone or of the product under test. […]
# as §3, §1, §2
# rat thymocytes = experiment: Anti-glucocorticoid activity vis-a-vis dexamethasone: incorporation of uridine in rat thymocytes; assay type: cell-based
# From the text: Glucocorticoids cause an inhibition of the incorporation of nucleosides in lymphoid tissue and the measurement of the incorporation of radio-active uridine in the thymocytes in the presence of a product under test allows its glucocorticoid activity to be evaluated.
# In accordance with the technique described by Dausse et al (3), the thymus of a suprarenalectomized rat weighing 160 to 180 g was removed, shredded and homogenized slowly using a teflon-flask homogenizer in Hanks solution. The cellular suspension was filtered on gauze, then centrifuged at 800 g×10 mn. A new centrifugation was carried out at 800 g×10 mm and the deposit was suspended in a nutritive medium (M.E.M. Gibco). The cellular concentration was adjusted to approximately 20×10^6 cells per ml and aliquots of 250 μl were incubated under carbogen for 3 hours at 37° C. with 5×10^-8 M of dexamethasone in the presence or not of increasing concentrations of product (10^-8 to 10^-6 M). 0.1 uCi of tritiated uridine was added to each incubate and the incubation was continued for one hour. The incubates were cooled and 1 ml of a cold solution of trichloroacetic acid (TCA) at 5% weight/volume was added. […] The radioactivity retained on the filters (representing the tritiated uridine incorporated in the thymocytes) was measured using a liquid scintillation spectrometer.
structure (smiles),measurement,setting,value
"CC#C[C@]1(O)CC[C@H]2[C@@H]3CCC4=CC(=O)CCC4=C3[C@@H](c3ccc(N(C)CC(=O)O)cc3)C[C@@]21C [Example 1, Sodium salt of [[4-[17α-(1-propynyl)-Δ^4,9-estradien-17β-ol-3-one-11 β-yl]-phenyl]-methylamino]-acetic acid]",relative bond affinity (RBA) Progesterone 2H,[1]; incubation 2 hours at 0° C.,22
same,relative bond affinity (RBA) Progesterone 24H,[1]; incubation 24 hours at 0° C.,107
same,relative bond affinity (RBA) Glucocorticoid 4H,[2]; incubation 4 hours at 0° C.,101
same,relative bond affinity (RBA) Glucocorticoid 24H,[2]; incubation 24 hours at 0° C.,129
same,relative bond affinity (RBA) Androgen,[3]; incubation (so in the source) at 0° C.,"10,1"
same,"relative bond affinity (RBA) Androgen 0,5H",[3]; incubation half an hour at 0° C.,"2,1"
same,anti-glucocorticoid activity (statement in words),rat thymocytes,good anti-glucocorticoid activity
